Consider 1 compound from article PMC12379310 (Virology Journal, 2025).

In the assay the target is human ether-α-go-go related gene (hERG) potassium channel (Kv11.1) (Homo sapiens, UniProt Q12809). Briefly: automated whole-cell patch clamp. The format is cell-based. (In patch-clamp work, channel activity is measured electrically.)

pIC50: −log10 of the molar value.

The term pIC50 denotes the negative decadic logarithm of the IC50, by convention in mol/L. Read a low pIC50 as a large IC50.

Sequence of human ether-α-go-go related gene (hERG) potassium channel (Kv11.1) (Q12809 whole entry): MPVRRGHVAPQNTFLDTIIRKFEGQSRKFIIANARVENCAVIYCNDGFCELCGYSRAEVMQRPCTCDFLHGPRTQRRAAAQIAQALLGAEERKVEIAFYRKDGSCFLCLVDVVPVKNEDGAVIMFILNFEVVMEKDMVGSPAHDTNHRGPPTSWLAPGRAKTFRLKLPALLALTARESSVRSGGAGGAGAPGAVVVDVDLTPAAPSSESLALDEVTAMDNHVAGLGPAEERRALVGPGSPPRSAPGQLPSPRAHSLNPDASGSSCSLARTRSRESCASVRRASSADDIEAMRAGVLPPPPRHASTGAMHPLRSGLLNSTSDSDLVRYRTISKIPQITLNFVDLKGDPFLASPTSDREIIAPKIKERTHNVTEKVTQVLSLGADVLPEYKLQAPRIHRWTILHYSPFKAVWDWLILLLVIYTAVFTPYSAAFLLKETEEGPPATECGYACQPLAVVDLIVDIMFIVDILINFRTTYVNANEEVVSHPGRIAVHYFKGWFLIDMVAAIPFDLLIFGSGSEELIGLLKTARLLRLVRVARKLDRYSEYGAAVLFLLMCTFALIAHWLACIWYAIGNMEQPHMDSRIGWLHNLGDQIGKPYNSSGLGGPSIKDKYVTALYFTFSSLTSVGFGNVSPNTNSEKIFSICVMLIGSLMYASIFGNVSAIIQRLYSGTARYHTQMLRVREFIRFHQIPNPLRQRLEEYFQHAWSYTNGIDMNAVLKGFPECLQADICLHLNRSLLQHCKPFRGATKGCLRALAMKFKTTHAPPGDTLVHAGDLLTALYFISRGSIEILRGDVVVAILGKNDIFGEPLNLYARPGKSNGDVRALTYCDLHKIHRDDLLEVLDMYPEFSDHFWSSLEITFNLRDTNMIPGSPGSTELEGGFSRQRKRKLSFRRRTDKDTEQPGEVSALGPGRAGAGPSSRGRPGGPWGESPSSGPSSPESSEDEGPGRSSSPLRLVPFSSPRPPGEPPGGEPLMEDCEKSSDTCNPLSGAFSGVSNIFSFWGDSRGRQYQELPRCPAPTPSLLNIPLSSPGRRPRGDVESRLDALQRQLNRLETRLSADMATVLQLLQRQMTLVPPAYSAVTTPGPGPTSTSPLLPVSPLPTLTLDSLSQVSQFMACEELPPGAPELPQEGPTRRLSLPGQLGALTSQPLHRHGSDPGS

In turn, `CCOC(=O)c1c(CSc2ccccc2)n(C)c2cc(Br)c(O)c(CN(C)C)c12` [Arbidol] had a pIC50 of 6.52.
